Values after ≈ are worked out from the molar mass of the structure shown. Each block holds one compound with its values, some of them ahead of it.
Experiments:
HCC1937 = experiment: Anticancer activity against human HCC1937 cells assessed as cell growth inhibition; assay type: functional, cell-based
SUM149PT = experiment: Anticancer activity against human SUM149 cells assessed as cell growth inhibition; assay type: functional, cell-based
MDA-MB-231 [1] = experiment: Anticancer activity against human MDA-MB-231 cells assessed as cell growth inhibition; assay type: functional, cell-based
Hs-578T [2] = experiment: Anticancer activity against human Hs-578T cells assessed as cell growth inhibition; assay type: functional, cell-based
MDA-MB-231 [3] = experiment: Anticancer activity against human MDA-MB-231 cells assessed as cell growth inhibition incubated for 3 to 5 days by MTT assay; assay type: functional, cell-based
BT-20 = experiment: Anticancer activity against human BT-20 cells assessed as cell growth inhibition by MTT assay; assay type: functional, cell-based
HCC70 = experiment: Anticancer activity against human HCC70 cells assessed as cell growth inhibition; assay type: functional, cell-based
HCC1806 [4] = experiment: Anticancer activity against human HCC1806 cells assessed as cell growth inhibition; assay type: functional
HCC38 [5] = experiment: Anticancer activity against human HCC38 cells assessed as cell growth inhibition; assay type: functional, cell-based
MDA-MB-453 = experiment: Anticancer activity against human MDA-MB-453 cells assessed as cell growth inhibition; assay type: functional, cell-based
MCF7 = experiment: Anticancer activity against human MCF7 cells assessed as cell growth inhibition; assay type: functional, cell-based
MDA-MB-468 = experiment: Anticancer activity against human MDA-MB-468 cells assessed as cell growth inhibition; assay type: functional, cell-based
[6] = target: T1, Insulin-like growth factor 1 receptor (Homo sapiens, UniProt P08069); experiment: Inhibition of human IGF1R expressed in MDA-MB-468 cells; assay type: cell-based
[7] = target: T1, Insulin-like growth factor 1 receptor; experiment: Inhibition of human IGF1R expressed in SUM149 cells; assay type: cell-based, SUM149PT
Aurora kinase A = Aurora kinase A (Homo sapiens, UniProt O14965); experiment: Inhibition of human Aurora A kinase expressed in MDA-MB-468 cells; assay type: cell-based
Aurora kinase B [8] = target: T2, Aurora kinase B (Homo sapiens, UniProt Q96GD4); experiment: Inhibition of human Aurora B kinase expressed in MDA-MB-468 cells; assay type: cell-based
Aurora kinase B [9] = target: T2, Aurora kinase B; experiment: Inhibition of human Aurora B kinase expressed in SUM149 cells; assay type: cell-based, SUM149PT
Aurora kinase B [10] = target: T2, Aurora kinase B; experiment: Inhibition of human Aurora B kinase expressed in MDA-MB-231 cells; assay type: cell-based
HCC1806 [11] = experiment: Anticancer activity against human HCC1806 cells assessed as cell growth inhibition incubated for 4 to 10 days by MTT assay; assay type: functional, cell-based
MDA-MB-231 [12] = experiment: Anticancer activity against human MDA-MB-231 cells assessed as cell growth inhibition incubated for 4 to 10 days by MTT assay; assay type: functional, cell-based
HCC38 [13] = experiment: Anticancer activity against human HCC38 cells assessed as cell growth inhibition incubated for 4 to 10 days by MTT assay; assay type: functional, cell-based
Hs-578T [14] = experiment: Anticancer activity against human Hs-578T cells assessed as cell growth inhibition incubated for 4 to 10 days by MTT assay; assay type: functional, cell-based
BT-549 [15] = experiment: Anticancer activity against human BT-549 cells assessed as cell growth inhibition incubated for 4 to 10 days by MTT assay; assay type: functional, cell-based
HCC1187 = experiment: Anticancer activity against human HCC1187 cells assessed as cell growth inhibition; assay type: functional, cell-based
HCC1143 = experiment: Anticancer activity against human HCC1143 cells assessed as cell growth inhibition; assay type: functional, cell-based
Thioredoxin = Thioredoxin (Homo sapiens, UniProt P10599); experiment: Inhibition of human TXN incubated for 30 mins by fluorescence based plate reader analysis
BT-549 [16] = experiment: Anticancer activity against human BT-549 cells assessed as cell growth inhibition incubated for 24 hrs by CCK8 assay; assay type: functional, cell-based; conditions: BT-549, 24 h
MDA-MB-231 [17] = experiment: Anticancer activity against human MDA-MB-231 cells assessed as cell growth inhibition incubated for 24 hrs by CCK8 assay; assay type: functional, cell-based; conditions: MDA-MB-231, 24 h
MDA-MB-436 = experiment: Anticancer activity against human MDA-MB-436 cells assessed as cell growth inhibition incubated for 24 hrs by CCK8 assay; assay type: functional, cell-based; conditions: MDA-MB-436, 24 h
MDA-MB-231 [18] = experiment: cells; conditions: Homo sapiens, MDA-MB-231, 24 h
Hs-578T [19] = experiment: Anticancer activity against human Hs-578T cells assessed as cell growth inhibition incubated for 24 hrs by ALDEFLUOR assay; assay type: functional, cell-based
HCC1806 [20] = experiment: Anticancer activity against human HCC1806 cells assessed as cell growth inhibition incubated for 72 hrs by CellTiter-Blue assay; assay type: functional, cell-based; conditions: HCC1806, 72 h
MDA-MB-231 [21] = experiment: Anticancer activity against human MDA-MB-231 cells assessed as cell growth inhibition incubated for 72 hrs by CellTiter-Blue assay; assay type: functional, cell-based; conditions: MDA-MB-231, 72 h

T2 sequence (Q96GD4 whole entry): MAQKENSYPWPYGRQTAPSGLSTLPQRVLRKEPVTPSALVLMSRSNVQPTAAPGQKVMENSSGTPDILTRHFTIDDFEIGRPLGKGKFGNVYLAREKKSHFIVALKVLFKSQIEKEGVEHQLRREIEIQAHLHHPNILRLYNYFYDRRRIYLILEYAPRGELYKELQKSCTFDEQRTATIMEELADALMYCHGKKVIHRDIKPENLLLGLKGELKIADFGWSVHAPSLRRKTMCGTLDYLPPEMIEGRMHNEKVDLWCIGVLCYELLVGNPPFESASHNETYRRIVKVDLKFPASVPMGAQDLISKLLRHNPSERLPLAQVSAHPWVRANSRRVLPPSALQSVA
T1 sequence (P08069 31-736 limits assumed): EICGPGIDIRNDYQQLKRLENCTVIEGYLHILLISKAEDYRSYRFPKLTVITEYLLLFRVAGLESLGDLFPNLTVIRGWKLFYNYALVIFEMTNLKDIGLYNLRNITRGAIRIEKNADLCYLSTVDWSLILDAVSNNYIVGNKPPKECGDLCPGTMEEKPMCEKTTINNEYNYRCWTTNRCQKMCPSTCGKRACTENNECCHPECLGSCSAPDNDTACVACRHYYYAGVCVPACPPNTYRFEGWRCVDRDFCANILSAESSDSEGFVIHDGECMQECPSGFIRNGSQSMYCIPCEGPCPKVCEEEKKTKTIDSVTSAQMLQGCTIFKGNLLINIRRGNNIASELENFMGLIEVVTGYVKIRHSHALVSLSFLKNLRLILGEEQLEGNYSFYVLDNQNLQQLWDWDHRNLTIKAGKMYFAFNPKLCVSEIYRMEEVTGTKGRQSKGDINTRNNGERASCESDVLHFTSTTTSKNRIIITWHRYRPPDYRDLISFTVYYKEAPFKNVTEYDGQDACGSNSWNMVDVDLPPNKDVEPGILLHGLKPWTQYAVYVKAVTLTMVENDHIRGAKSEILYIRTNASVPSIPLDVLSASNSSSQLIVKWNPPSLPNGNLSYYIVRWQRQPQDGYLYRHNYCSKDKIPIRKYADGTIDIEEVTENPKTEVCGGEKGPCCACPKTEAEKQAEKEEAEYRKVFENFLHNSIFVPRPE
T1 sequence (P08069 741-1367 limits assumed): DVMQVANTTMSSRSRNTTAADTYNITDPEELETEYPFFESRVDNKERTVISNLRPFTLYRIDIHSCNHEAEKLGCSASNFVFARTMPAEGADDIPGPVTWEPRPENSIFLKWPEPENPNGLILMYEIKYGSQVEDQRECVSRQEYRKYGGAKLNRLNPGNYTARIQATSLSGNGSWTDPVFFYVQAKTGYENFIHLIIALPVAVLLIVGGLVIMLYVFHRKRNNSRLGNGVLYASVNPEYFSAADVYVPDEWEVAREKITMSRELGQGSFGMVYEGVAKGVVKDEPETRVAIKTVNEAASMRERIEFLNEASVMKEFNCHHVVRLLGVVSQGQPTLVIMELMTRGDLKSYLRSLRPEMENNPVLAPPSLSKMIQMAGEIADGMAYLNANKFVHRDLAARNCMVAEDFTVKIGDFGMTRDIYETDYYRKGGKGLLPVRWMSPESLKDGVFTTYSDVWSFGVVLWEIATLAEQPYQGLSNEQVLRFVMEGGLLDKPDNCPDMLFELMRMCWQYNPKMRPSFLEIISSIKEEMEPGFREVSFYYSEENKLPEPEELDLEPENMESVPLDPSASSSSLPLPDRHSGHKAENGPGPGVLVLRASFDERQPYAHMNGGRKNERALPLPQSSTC
Sequence of Aurora kinase A (O14965 whole entry): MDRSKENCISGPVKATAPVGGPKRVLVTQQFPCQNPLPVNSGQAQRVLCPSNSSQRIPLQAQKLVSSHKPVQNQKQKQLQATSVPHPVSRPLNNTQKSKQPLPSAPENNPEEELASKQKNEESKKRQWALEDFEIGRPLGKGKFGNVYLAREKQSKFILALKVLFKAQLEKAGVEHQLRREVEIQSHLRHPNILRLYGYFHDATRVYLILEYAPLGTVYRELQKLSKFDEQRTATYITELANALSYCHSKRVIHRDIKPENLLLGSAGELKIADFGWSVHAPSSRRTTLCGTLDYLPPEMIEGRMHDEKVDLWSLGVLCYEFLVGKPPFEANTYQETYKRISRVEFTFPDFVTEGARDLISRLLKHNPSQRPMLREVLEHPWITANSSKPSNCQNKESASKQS
Sequence of Thioredoxin (P10599 whole entry): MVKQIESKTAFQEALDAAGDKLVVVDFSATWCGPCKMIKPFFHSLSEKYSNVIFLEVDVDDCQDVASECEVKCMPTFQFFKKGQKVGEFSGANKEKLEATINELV

IC50 (HCC1937): 120 nM | IC50 (MDA-MB-231 [1]): 6.1 nM
SMILES: Cc1nc(Nc2ncc(C(=O)Nc3cc(NC(=O)c4cccc(C(F)(F)F)c4)ccc3C)s2)cc(N2CCN(CCO)CC2)n1
IC50 (SUM149PT): 230 nM | IC50 (Hs-578T [2]): 9.1 nM

IC50 (MDA-MB-231 [3]): 1000 nM
SMILES: CCOC(=O)c1cnn(-c2ccc(NC(=O)C(Cl)=C(Cl)Cl)cc2)c1C(F)(F)F

IC50 (BT-20): 6200 nM
SMILES: CN(c1ccccc1CNc1nc(Nc2ccc3c(c2)CC(=O)N3)ncc1C(F)(F)F)S(C)(=O)=O

SMILES: Nc1ccc(-c2ccc3ncc4ccc(=O)n(-c5cccc(C(F)(F)F)c5)c4c3c2)cn1
GR50 (HCC70): 0.01 µM | GR50 (HCC1806 [4]): 0.01 µM

EC50 (HCC38 [5]): 1200 nM | EC50 (MDA-MB-453): 2510 nM | EC50 (MCF7): 770 nM | EC50 (HCC1937): 440 nM | EC50 (MDA-MB-468): 2500 nM
SMILES: CCN(CC)c1ccc(CNc2ccc(Cl)cc2)cc1

IC50 [6]: < 2 nM | IC50 [7]: < 2 nM | IC50 (Aurora kinase A): 215 nM | IC50 (Aurora kinase B [8]): 478 nM | IC50 (Aurora kinase B [9]): 272 nM | IC50 (Aurora kinase B [10]): 66 nM
SMILES: Cc1ccsc1C(=O)Nc1cc(CN2CCN(C(=O)CO)CC2)ccc1/C=C/c1n[nH]c2ccccc12 [KW-2450]

IC50 (HCC1806 [11]): 19 nM | IC50 (MDA-MB-231 [12]): 10.3 nM | IC50 (HCC38 [13]): 15 nM | IC50 (BT-549 [15]): 6.8 nM
SMILES: Cc1sc2c(c1C)C(c1ccc(Cl)cc1)=N[C@@H](CC(=O)NCCCCCCCCCCNC(=O)C[C@@H]1N=C(c3ccc(Cl)cc3)c3c(sc(C)c3C)-n3c(C)nnc31)c1nnc(C)n1-2
IC50 (Hs-578T [14]): 4.1 nM

IC50 (HCC1187): 1000 nM | IC50 (HCC1143): 5000 nM | IC50 (MDA-MB-231 [1]): 1000 nM | IC50 (MDA-MB-468): 1000 nM
SMILES: N#CCNC(=O)c1ccc(-c2ccnc(Nc3ccc(N4CCOCC4)cc3)n2)cc1 [MOMELOTINIB]
IC50 (HCC70; Homo sapiens, HCC70): 10000 nM

IC50 (Thioredoxin): 10000 nM
SMILES: Fc1ccc(-c2ccc(Nc3nc(Cl)nc(Cl)n3)cc2)cc1

SMILES: O=C1OC(=O)C2C3CCC(O3)C12 (configuration not stated)
IC50 (BT-549 [16]): 12.8 µg/mL (≈ 76.3 µM) | IC50 (MDA-MB-231 [17]): 21.8 µg/mL (≈ 130 µM) | IC50 (MDA-MB-436): 17.7 µg/mL (≈ 105 µM)

IC50 (MDA-MB-231 [18]): 1000 nM
SMILES: Nc1ccccc1NC(=O)c1ccc(CNC(=O)OCc2cccnc2)cc1 [ENTINOSTAT]
IC50 (Hs-578T [19]): 1000 nM

IC50 (HCC1806 [20]): 100 nM | IC50 (MDA-MB-231 [21]): 50 nM
SMILES: O=C(Cc1cccc(OC(F)(F)F)c1)Nc1ccc(CCCCc2nnc(NC(=O)Cc3ccccn3)s2)nn1

From ChEMBL document CHEMBL5226297, “Small-Molecule Drug Discovery in Triple Negative Breast Cancer: Current Situation and Future Directions” (J Med Chem, 2021)
